From US7390873B2, “Antimicrobial cationic peptides” (University of British Columbia, priority 1995, dated 2008)
pIC50: −log10 of the molar value. Converted amounts (≈) assume the structure as drawn. Where two headings read alike, the source gives them in different places. Where a SMILES comes first, the peptide text is derived from it. Where no end group is shown, it is not given here. [ ]: non-standard residue; d: D form.

Columns and labels:
[1] = tested on: E. coli UB1005; assay type: cell-based; details: for MIC E. coli: UB1005, 24 h
Method: (§1) Any of the art-known methods for measuring antimicrobial activity of peptides can be used in characterizing the peptides of the invention. In these examples, conventional methods were used to determine the minimal inhibitory concentration (MIC) of a peptide in a liquid medium (Amsterdam. Antibiotics in Laboratory Medicine, Williams and Wilkins, Baltimore (1991) 72-78). Briefly, overnight cultures of the test organisms (described below) were diluted to produce an inoculum containing approximately 10^4 to 10^5 organisms. The inoculum size was confirmed by counting the number of organisms on plates that were inoculated at the same time as the liquid cultures.
(§2) The concentration of peptide was measured by assaying for free amino groups using a dinitrophenylation assay, with polymyxin B serving as a standard. Doubling dilutions of peptide were performed (32 μg/ml-0.25 μg/ml) in 100 μl volumes in a 96-well mictrotiter plate, and all wells were subsequently inoculated with the diluted culture of the test organism. After 24 hours of incubation at 37° C., the assay was read. The MIC value is the concentration of peptide at which the growth of the test organism was reduced by 50%. The number of cells in the culture inoculum was calculated from the plate count after incubating the plate for 24 hours at 37° C. The medium used for cell culture and dilution in this assay was Luria broth (LB). Each peptide was tested three times against each organism, and the MIC values presented below are the mean values of the three experiments.

[2] = tested on: Pseudomonas aeruginosa K799; assay type: cell-based; details: for MIC P. aeruginosa: K799, 24 h
Method: as §1, §2

[3] = tested on: Staphylococcus aureus RN4220; assay type: cell-based; details: for MIC S. aureus: RN4220, 24 h
Method: as §1, §2

[4] = tested on: Staphylococcus epidermidis C621; assay type: cell-based; details: for MIC S. epidermidis: C621, 24 h
Method: as §1, §2

[5] = tested on: Candida albicans C627; assay type: cell-based; details: for MIC C. albicans: C627, 24 h
[6] = tested on: all of the organisms tested; assay: MIC assay, summary over the organisms tested; assay type: cell-based; details: range over organisms
Method: as §1
as §2, with “The medium used for cell culture and dilution in this assay was Luria broth (LB). Each peptide was tested three times against each organism, and the MIC values presented below are the mean values of the three experiments.” left out
MIC values also were determined for various derivatives of indolicidin, CP-11, and CP-13. […]

[7] = tested on: human red blood cells; assay: Lysis of red blood cells; assay type: cell-based
Method: Freshly collected human blood was mixed with heparin and centrifuged to remove the buffy coat. The resulting erythrocytes were washed three times in 0.85% saline and stored at 4° C. Serial dilutions of the peptides in saline were prepared in round bottomed microtitre plates using 100 μl volumes. Red blood cells were diluted with saline to 1/25 of the packed volume of cells and 50 μl of red blood cells were added to each well. Plates were incubated while rocking at 37° C., and the concentration of peptide required for red blood cell lysis of more than 80% of cells (i.e., visible lysis) was determined at 4 and 24 hours (Table 7).

[8] = Mortality after injection of peptide in mice; assay type: in vivo; details: 200 μg peptide IP
Method: The ability of indolicidin and variants to protect against LPS-induced endotoxemia was assessed in vivo. Mice (8-10 weeks old) were injected intraperitoneally (IP) with 20 mg D-galactosamine (Dgal) to sensitive them to LPS according to the model of Galanos (Galanos, C., M. A., Freudenberg and W. Reutter, 1979, Galactosamine sensitization to the lethal effects of endotoxin. Proc. Natl. Acad. Sci. USA 76:5939), followed by 200 μg peptide in 100 μl. Immediately afterwards LPS (10 μg) in 100 μl was injected. The mice were observed 24 hours after injections and survivors noted. […] When Dgal and LPS were also injected, that 200 μg of indolicidin reduced mortality reduced at 24 hours from 100% in controls to 60%.

[9] = Dansyl polymyxin B (DPX) displacement assay; assay type: binding, P. aeruginosa; details: concentration at which 50% of the maximal DPX was displaced from the LPS; read-out: I50 of DPX displacement
Method: Peptides that bind lipopolysaccharide are thought to potentially function as anti-endotoxins. The binding of various CP peptides to P. aeruginosa H103 lipopolysaccharide (LPS) was measured in a dansyl polymyxin B (DPX) displacement assay as described by Moore et al. (AAC, 26 (1986) 496-500). […] Purified LPS was saturated with DPX by titrating LPS with samples of DPX until maximum fluorescence was reached. Fluorescence was measured in a Perkin-Elmer 650-10S fluorescence spectrophotometer and displacement of DPX was measured as a decrease in fluorescence upon the addition of an antimicrobial peptide.
Each peptides I50 value, which is the concentration at which 50% of the maximal DPX was displaced from the LPS, is shown. Also shown is the Imax value, which represents the maximum displacement of […] expressed as a percentage, where 100% indicates displacement of all bound DPX.

Row | Compound | MIC E. coli [1] [µg/mL] | MIC P. aeruginosa [2] [µg/mL] | MIC S. aureus [3] [µg/mL] | MIC S. epidermidis [4] [µg/mL] | MIC C. albicans [5] [µg/mL] | also measured
1 | CC[C@H](C)[C@H](N)C(=O)N[C@@H](CC(C)C)C(=O)N[C@@H](CCCCN)C(=O)N[C@@H](CCCCN)C(=O)N[C@@H](Cc1c[nH]c2ccccc12)C(=O)N1CCC[C@H]1C(=O)N[C@@H](Cc1c[nH]c2ccccc12)C(=O)N[C@@H](Cc1c[nH]c2ccccc12)C(=O)N1CCC[C@H]1C(=O)N[C@@H](Cc1c[nH]c2ccccc12)C(=O)N[C@@H](CCCNC(=N)N)C(=O)N[C@@H](CCCNC(=N)N)C(=O)N[C@@H](CCCCN)C(=O)OC [CP-11C] (H-ILKKWPWWPWRRK-OMe) | 2 (≈ 1.06 µM) | 8 (≈ 4.22 µM) | 8 (≈ 4.22 µM) | 1 (≈ 0.528 µM) | 8 (≈ 4.22 µM) | MIC values for all of the organisms tested [6]: 1 to 8 µg/mL; Lowest concentration causing lysis, 4 hours [7]: >128 µg/mL; Lowest concentration causing lysis, 24 hours [7]: 64 µg/mL
2 | CC[C@@H](C)[C@@H](N)C(=O)N[C@@H](CC(C)C)C(=O)N[C@@H](CCCCN)C(=O)N[C@@H](CCCCN)C(=O)N[C@@H](Cc1c[nH]c2ccccc12)C(=O)N1CCC[C@H]1C(=O)N[C@@H](Cc1c[nH]c2ccccc12)C(=O)N[C@@H](Cc1c[nH]c2ccccc12)C(=O)N1CCC[C@H]1C(=O)N[C@@H](Cc1c[nH]c2ccccc12)C(=O)N[C@@H](CCCNC(=N)N)C(=O)N[C@@H](CCCNC(=N)N)C(=O)N[C@@H](CCCCN)C(=O)OC [CP-11DC] (H-[dI]LKKWPWWPWRRK-OMe; N-terminus assumed) | 4 (≈ 2.11 µM) | 4 (≈ 2.11 µM) | 4 (≈ 2.11 µM) | 2 (≈ 1.06 µM) | 8 (≈ 4.22 µM) | 
3 | CC[C@@H](C)[C@@H](N)C(=O)N[C@@H](CC(C)C)C(=O)N[C@@H](CCCCN)C(=O)N[C@@H](CCCCN)C(=O)N[C@@H](Cc1c[nH]c2ccccc12)C(=O)N1CCC[C@H]1C(=O)N[C@@H](Cc1c[nH]c2ccccc12)C(=O)N[C@@H](Cc1c[nH]c2ccccc12)C(=O)N1CCC[C@H]1C(=O)N[C@@H](Cc1c[nH]c2ccccc12)C(=O)N[C@@H](CCCNC(=N)N)C(=O)N[C@@H](CCCNC(=N)N)C(=O)N[C@@H](CCCCN)C(=O)O [CP-11D] (H-[dI]LKKWPWWPWRRK-OH) | 4 (≈ 2.13 µM) | 4 (≈ 2.13 µM) | 4 (≈ 2.13 µM) | 2 (≈ 1.06 µM) | 8 (≈ 4.25 µM) | Mortality after injection of peptide [8]: did not cause mortality
4 | CC[C@H](C)[C@H](N)C(=O)N[C@@H](CC(C)C)C(=O)N1CCC[C@H]1C(=O)N[C@@H](Cc1c[nH]c2ccccc12)C(=O)N[C@@H](CCCCN)C(=O)N[C@@H](Cc1c[nH]c2ccccc12)C(=O)N1CCC[C@H]1C(=O)N[C@@H](Cc1c[nH]c2ccccc12)C(=O)N[C@@H](Cc1c[nH]c2ccccc12)C(=O)N1CCC[C@H]1C(=O)N[C@@H](Cc1c[nH]c2ccccc12)C(=O)N[C@@H](CCCNC(=N)N)C(=O)N[C@@H](CCCNC(=N)N)C(=O)OC [Indolicidin-C] | 4 (≈ 2.08 µM) | >32 | 4 (≈ 2.08 µM) | 1 (≈ 0.52 µM) | >32 | Lowest concentration causing lysis, 4 hours ([7]; lysis of more than 80% of cells (visible lysis), 37° C., 4 hours): 32 µg/mL; Lowest concentration causing lysis, 24 hours ([7]; lysis of more than 80% of cells (visible lysis), 37° C., 24 hours): 32 µg/mL
5 | CC[C@@H](C)[C@@H](N)C(=O)N[C@@H](CC(C)C)C(=O)N1CCC[C@H]1C(=O)N[C@@H](Cc1c[nH]c2ccccc12)C(=O)N[C@@H](CCCCN)C(=O)N[C@@H](Cc1c[nH]c2ccccc12)C(=O)N1CCC[C@H]1C(=O)N[C@@H](Cc1c[nH]c2ccccc12)C(=O)N[C@@H](Cc1c[nH]c2ccccc12)C(=O)N1CCC[C@H]1C(=O)N[C@@H](Cc1c[nH]c2ccccc12)C(=O)N[C@@H](CCCNC(=N)N)C(=O)N[C@@H](CCCNC(=N)N)C(=O)OC [Indolicidin-DC] | 4 (≈ 2.08 µM) | >32 | 8 (≈ 4.16 µM) | 2 (≈ 1.04 µM) | >32 | 
6 | CC[C@@H](C)[C@@H](N)C(=O)N[C@@H](CC(C)C)C(=O)N1CCC[C@H]1C(=O)N[C@@H](Cc1c[nH]c2ccccc12)C(=O)N[C@@H](CCCCN)C(=O)N[C@@H](Cc1c[nH]c2ccccc12)C(=O)N1CCC[C@H]1C(=O)N[C@@H](Cc1c[nH]c2ccccc12)C(=O)N[C@@H](Cc1c[nH]c2ccccc12)C(=O)N1CCC[C@H]1C(=O)N[C@@H](Cc1c[nH]c2ccccc12)C(=O)N[C@@H](CCCNC(=N)N)C(=O)N[C@@H](CCCNC(=N)N)C(=O)O [Indolicidin-D] | 8 (≈ 4.19 µM) | >32 | 4 (≈ 2.1 µM) | 2 (≈ 1.05 µM) | >32 | Mortality after injection of peptide [8]: did not cause mortality
7 | CC[C@H](C)[C@H](N)C(=O)N[C@@H](CC(C)C)C(=O)N1CCC[C@H]1C(=O)N[C@@H](Cc1c[nH]c2ccccc12)C(=O)N[C@@H](CCCCN)C(=O)N[C@@H](Cc1c[nH]c2ccccc12)C(=O)N1CCC[C@H]1C(=O)N[C@@H](Cc1c[nH]c2ccccc12)C(=O)N[C@@H](Cc1c[nH]c2ccccc12)C(=O)N1CCC[C@H]1C(=O)N[C@@H](Cc1c[nH]c2ccccc12)C(=O)N[C@@H](CCCNC(=N)N)C(=O)N[C@@H](CCCNC(=N)N)C(=O)O [Indolicidin-R, reference compound] |  |  |  |  |  | MIC E.coli UB1005 [1]: 32 µg/mL (≈ 16.8 µM); MIC P. aeruginosa K799 [2]: >32 µg/mL; MIC S. aureus RN4220 [3]: 16 µg/mL (≈ 8.39 µM); MIC S. epidermidis C621 [4]: 16 µg/mL (≈ 8.39 µM); MIC C. albicans C627 [5]: >32 µg/mL
8 | [Mg+2] [Mg^2+ ions, Mg^2+] |  |  |  |  |  | pIC50 [9]: ~3.21
9 | FFKKFPFFPFRRK [CP-24] | 8 | 32 | 8 |  |  | 
10 | ILKKWPWWPWKWKK [CP-13] | 8 | >32 | >32 | 4 | >32 | Lowest concentration causing lysis, 4 hours [7]: >128 µg/mL; Lowest concentration causing lysis, 24 hours [7]: 128 µg/mL
11 | ILKKWPWWPWRRK-NH2 [CP-11N] | 1 |  | >32 | 8 |  | 
12 | ILPWKKWPWWRWRR [CP-3R] |  |  |  |  |  | MIC E.coli UB1005 [1]: 8 µg/mL; MIC P. aeruginosa K799 [2]: 8 µg/mL; MIC S. aureus RN4220 [3]: 8 µg/mL; MIC S. epidermidis C621 [4]: 4 µg/mL; MIC C. albicans C627 [5]: > 32 µg/mL; Partial killing observed in dilutions down to ([5]; purified recombinant peptide, C. albicans C627): 8 µg/mL
13 | ILPWKWPWYVRR [CP-IA] | >32 | >32 | >32 | >32 | >32 | 
